Test system: keratinocytes, HaCaT cells
Assay: Inhibition rate on keratinocyte (HaCaT cell) proliferation, MTT
Assay type: cell-based
Settings: Homo sapiens
Experimental: Dimethyl sulfoxide (DMSO) was used as a solvent to prepare apigenin test samples with different concentrations and luteolin test samples with different concentrations. 9 batches of experiments were performed, which respectively were Batch 1 to Batch 9. There were 6 independent experiments in each batch of experiments. In each independent experiment, inhibition rate of an apigenin test sample with a specific concentration on keratinocyte proliferation and inhibition rate of a luteolin test sample with a specific concentration on keratinocyte proliferation were determined, and inhibition rate of a combination of an apigenin test sample with the said specific concentration and a luteolin test sample with the said specific concentration on keratinocyte proliferation was determined. Between the independent experiments, concentrations of apigenin test samples used were different, and concentrations of luteolin test samples used were also different, however, mole ratios or weight ratios of apigenin test samples to luteolin test samples were the same. Moreover, between the batches of experiments, mole ratios or weight ratios of apigenin test samples to luteolin test samples were different. 5×10^3 keratinocytes, HaCaT cells, were inoculated in a 96-well culture plate and then placed in a 37° C. and 5% CO2 incubator for culturing overnight, and cell numbers at this time point (T0) was used as a benchmark for cell proliferation. After overnight culture, a test sample was added to the cells in the culture plate (refer to Table 1, and the cells of the control group were only treated with dimethyl sulfoxide) for co-culturing for 48 hours (T48). After that, the supernatant in the culture plate was removed. After the supernatant was removed, 50 μL MTT solution (0.5 mg/mL; Life Technologies Cat. No. M-6494) was added to cells and then the culture plate was placed in a 37° C. and 5% CO2 incubator for culturing for 1.5 hours. After that, 150 μL DMSO (J. T. Baker, Cat. No. 9224-03) was added to the cells in the culture plate and shaken for 5 minutes. Thereafter, the absorbance of each well of the culture plate was determined at 570 nm by a continuous wavelength microplate reader, and inhibition rate on cell proliferation was calculated through the following formula: Inhibition rate on cell proliferation=T48 Control group570 nm−T48 Experimental group570 nm)/(T48 Control group570 nm−T0 Control group570 nm) In this experiment, the synergistic effects of apigenin and luteolin were evaluated by CalcuSyn software (BIOSOFT). CalcuSyn software is an analysis software which is commonly used to analyze the drug dosage effect of single drug and multiple drugs at present. CalcuSyn software can be used to analyze drug complex interactions and automatically quantify various phenomena such as synergism and inhibition. CalcuSyn software can process the data of individual drugs and combination drugs with constant-ratio or on-constant-ratio, and can evaluate the interaction of combination drugs by the combination index (CI) (Chou and Talalay, Adv. Enzyme Regul. 22:27-55 (1984) calculated by CalcuSyn software. Calculation formula for the combination index is shown in the following: Combination index=C1/IC1+C2/IC2 C1 and C2 are the respective concentrations of the first compound and the second compound at which the activity of achieving a specific physiological or medical purpose is 50% (or 75%, or 90%) when the first compound and the second compound are analyzed in combination; IC1 and IC2 are the respective concentrations at which the activity of achieving a specific physiological or medical purpose of the first compound and the second compound is 50% (or 75%, or 90%) when the first compound and the second compound are independently analyzed. […]

O=c1cc(-c2ccc(O)cc2)oc2cc(O)cc(O)c12 [Apigenin, apigenin]
inhibition at 3.125 µM (Batch 1, apigenin 3.125 μM/0.84 μg/mL): 0% | inhibition at 6.25 µM (Batch 1, apigenin 6.25 μM/1.69 μg/mL): 0% | inhibition at 12.5 µM (Batch 1, apigenin 12.5 μM/3.38 μg/mL): 12.2% | inhibition at 25 µM (Batch 1, apigenin 25 μM/6.76 μg/mL): 29.2% | inhibition at 50 µM (Batch 1, apigenin 50 μM/13.51 μg/mL): 72.2% | inhibition at 100 µM (Batch 1, apigenin 100 μM/27.02 μg/mL): 103% | inhibition at 3.125 µM (Batch 2, apigenin 3.125 μM/0.84 μg/mL): 3.7% | inhibition at 6.25 µM (Batch 2, apigenin 6.25 μM/1.69 μg/mL): 5.8% | inhibition at 12.5 µM (Batch 2, apigenin 12.5 μM/3.38 μg/mL): 15.7% | inhibition at 25 µM (Batch 2, apigenin 25 μM/6.76 μg/mL): 40.7% | inhibition at 50 µM (Batch 2, apigenin 50 μM/13.51 μg/mL): 75.6% | inhibition at 100 µM (Batch 2, apigenin 100 μM/27.02 μg/mL): 105% | inhibition at 3.125 µM (Batch 3, apigenin 3.125 μM/0.84 μg/mL): 0% | inhibition at 6.25 µM (Batch 3, apigenin 6.25 μM/1.69 μg/mL): 5% | inhibition at 12.5 µM (Batch 3, apigenin 12.5 μM/3.38 μg/mL): 17.2% | inhibition at 25 µM (Batch 3, apigenin 25 μM/6.76 μg/mL): 39.7% | inhibition at 50 µM (Batch 3, apigenin 50 μM/13.51 μg/mL): 75.3% | inhibition at 100 µM (Batch 3, apigenin 100 μM/27.02 μg/mL): 103% | inhibition at 3.125 µM (Batch 4, apigenin 3.125 μM/0.84 μg/mL): 0% | inhibition at 6.25 µM (Batch 4, apigenin 6.25 μM/1.69 μg/mL): 0% | inhibition at 12.5 µM (Batch 4, apigenin 12.5 μM/3.38 μg/mL): 8.9% | inhibition at 25 µM (Batch 4, apigenin 25 μM/6.76 μg/mL): 31.9% | inhibition at 50 µM (Batch 4, apigenin 50 μM/13.51 μg/mL): 71.9% | inhibition at 100 µM (Batch 4, apigenin 100 μM/27.02 μg/mL): 103% | inhibition at 3.125 µM (Batch 5, apigenin 3.125 μM/0.84 μg/mL): 2.3% | inhibition at 6.25 µM (Batch 5, apigenin 6.25 μM/1.69 μg/mL): 11.1% | inhibition at 12.5 µM (Batch 5, apigenin 12.5 μM/3.38 μg/mL): 18.3% | inhibition at 25 µM (Batch 5, apigenin 25 μM/6.76 μg/mL): 36.2% | inhibition at 50 µM (Batch 5, apigenin 50 μM/13.51 μg/mL): 77.1% | inhibition at 100 µM (Batch 5, apigenin 100 μM/27.02 μg/mL): 110% | inhibition at 1.5625 µM (Batch 6, apigenin 1.5625 μM/0.42 μg/mL): 0% | inhibition at 3.125 µM (Batch 6, apigenin 3.125 μM/0.84 μg/mL): 0% | inhibition at 6.25 µM (Batch 6, apigenin 6.25 μM/1.69 μg/mL): 0% | inhibition at 12.5 µM (Batch 6, apigenin 12.5 μM/3.38 μg/mL): 1.3% | inhibition at 25 µM (Batch 6, apigenin 25 μM/6.76 μg/mL): 48.7% | inhibition at 50 µM (Batch 6, apigenin 50 μM/13.51 μg/mL): 72% | inhibition at 0.625 µM (Batch 7, apigenin 0.625 μM/0.17 μg/mL): 8% | inhibition at 1.25 µM (Batch 7, apigenin 1.25 μM/0.34 μg/mL): 8.3% | inhibition at 2.5 µM (Batch 7, apigenin 2.5 μM/0.68 μg/mL): 12.8% | inhibition at 5 µM (Batch 7, apigenin 5 μM/1.35 μg/mL): 8.7% | inhibition at 10 µM (Batch 7, apigenin 10 μM/2.70 μg/mL): 24.7% | inhibition at 20 µM (Batch 7, apigenin 20 μM/5.40 μg/mL): 40.4% | inhibition at 0.3125 µM (Batch 8, apigenin 0.3125 μM/0.08 μg/mL): 4.3% | inhibition at 0.625 µM (Batch 8, apigenin 0.625 μM/0.17 μg/mL): 9% | inhibition at 1.25 µM (Batch 8, apigenin 1.25 μM/0.34 μg/mL): 10.1% | inhibition at 2.5 µM (Batch 8, apigenin 2.5 μM/0.68 μg/mL): 8.9% | inhibition at 5 µM (Batch 8, apigenin 5 μM/1.35 μg/mL): 10.4% | inhibition at 10 µM (Batch 8, apigenin 10 μM/2.70 μg/mL): 18.3% | inhibition at 0.15625 µM (Batch 9, apigenin 0.15625 μM/0.04 μg/mL): 1.4% | inhibition at 0.3125 µM (Batch 9, apigenin 0.3125 μM/0.08 μg/mL): 3.9% | inhibition at 0.625 µM (Batch 9, apigenin 0.625 μM/0.17 μg/mL): 2.1% | inhibition at 1.25 µM (Batch 9, apigenin 1.25 μM/0.34 μg/mL): 4.6% | inhibition at 2.5 µM (Batch 9, apigenin 2.5 μM/0.68 μg/mL): 3.2% | inhibition at 5 µM (Batch 9, apigenin 5 μM/1.35 μg/mL): 3.2%

From patent US11491134B2, “Composition for inhibiting skin cell proliferation and/or anti-inflammation method for inhibiting skin cell proliferation and/or anti-inflammation and method for treating skin diseases and/or inflammatory diseases” (Industrial Technology Research Institute, priority 2019, dated 2022)
